{
  "source": "paper PMC10794144",
  "about": "“A novel antibiotic class targeting the lipopolysaccharide transporter” (Nature, 2024)",
  "tested_on": "A. baumannii",
  "assay": "microbe, parasite or virus in culture",
  "outline": "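Values come from CLSI-guided (M07, M100) broth microdilution in CAMHB. Endpoint: lowest concentration halting growth, judged by naked eye or by OD600 plateau.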",
  "data": [
    {"smiles": "CN1C(=O)[C@H](CCCCN)NC(=O)[C@H](CCCN)NCc2cccnc2Sc2c(Cl)ccc(Cl)c2CNC(=O)[C@@H]1Cc1c[nH]c2ccccc12", "note": "[RO7075573]", "values": [
      {"measurement": "MIC 80%", "setting": "ROB08704, Study ROC010", "value": 0.5, "unit": "mg/L"},
      {"measurement": "MIC 100%", "setting": "ROB08704, Study ROC010", "value": 1, "unit": "mg/L"},
      {"measurement": "MIC 80%", "setting": "ROB08704, Study ROC012", "value": 0.25, "unit": "mg/L"},
      {"measurement": "MIC 100%", "setting": "ROB08704, Study ROC012", "value": 32, "unit": "mg/L"},
      {"measurement": "MIC 80%", "setting": "ROB08705, Study LGC281440", "value": "≤0.06", "unit": "mg/L"},
      {"measurement": "MIC 100%", "setting": "ROB08705, Study LGC281440", "value": "≤0.06", "unit": "mg/L"},
      {"measurement": "MIC 80%", "setting": "ROB08705, Study LGC282160", "value": 0.12, "unit": "mg/L"},
      {"measurement": "MIC 100%", "setting": "ROB08705, Study LGC282160", "value": 32, "unit": "mg/L"},
      {"measurement": "MIC 80%", "setting": "ROB08705, Study LGC284879", "value": "≤0.06", "unit": "mg/L"},
      {"measurement": "MIC 100%", "setting": "ROB08705, Study LGC284879", "value": 0.12, "unit": "mg/L"},
      {"measurement": "MIC 80%", "setting": "ROB08705, Study LGC285582", "value": "≤0.06", "unit": "mg/L"},
      {"measurement": "MIC 100%", "setting": "ROB08705, Study LGC285582", "value": "≤0.06", "unit": "mg/L"},
      {"measurement": "MIC 80%", "setting": "ROB08705, Study LGC286210", "value": "≤0.06", "unit": "mg/L"},
      {"measurement": "MIC 100%", "setting": "ROB08705, Study LGC286210", "value": "≤0.06", "unit": "mg/L"},
      {"measurement": "MIC 80%", "setting": "ROB08705, Study LGC293598", "value": "≤0.06", "unit": "mg/L"},
      {"measurement": "MIC 100%", "setting": "ROB08705, Study LGC293598", "value": "≤0.06", "unit": "mg/L"},
      {"measurement": "MIC 80%", "setting": "ROB08705, Study LGC294355", "value": "≤0.06", "unit": "mg/L"},
      {"measurement": "MIC 100%", "setting": "ROB08705, Study LGC294355", "value": 32, "unit": "mg/L"},
      {"measurement": "MIC 80%", "setting": "ROB08705, Study LGC295147", "value": 0.12, "unit": "mg/L"},
      {"measurement": "MIC 100%", "setting": "ROB08705, Study LGC295147", "value": 1, "unit": "mg/L"},
      {"measurement": "MIC 80%", "setting": "ROB08705, Study LGC296813", "value": "≤0.06", "unit": "mg/L"},
      {"measurement": "MIC 100%", "setting": "ROB08705, Study LGC296813", "value": "≤0.06", "unit": "mg/L"},
      {"measurement": "MIC 80%", "setting": "ROB08705, Study LGC299544", "value": 0.12, "unit": "mg/L"},
      {"measurement": "MIC 100%", "setting": "ROB08705, Study LGC299544", "value": 0.12, "unit": "mg/L"},
      {"measurement": "MIC 80%", "setting": "ROB08705, Study LGC301026", "value": "≤0.06", "unit": "mg/L"},
      {"measurement": "MIC 100%", "setting": "ROB08705, Study LGC301026", "value": "≤0.06", "unit": "mg/L"},
      {"measurement": "MIC 80%", "setting": "ROB08705, Study LGC308175", "value": "≤0.06", "unit": "mg/L"},
      {"measurement": "MIC 100%", "setting": "ROB08705, Study LGC308175", "value": "≤0.06", "unit": "mg/L"},
      {"measurement": "MIC 80%", "setting": "ROB08705, Study ROC010", "value": 0.12, "unit": "mg/L"},
      {"measurement": "MIC 100%", "setting": "ROB08705, Study ROC010", "value": 64, "unit": "mg/L"},
      {"measurement": "MIC 80%", "setting": "ROB08705, Study ROC012", "value": "≤0.06", "unit": "mg/L"},
      {"measurement": "MIC 100%", "setting": "ROB08705, Study ROC012", "value": 0.12, "unit": "mg/L"},
      {"measurement": "MIC 80%", "setting": "ROB08706, Study LGC281440", "value": 0.25, "unit": "mg/L"},
      {"measurement": "MIC 100%", "setting": "ROB08706, Study LGC281440", "value": 16, "unit": "mg/L"},
      {"measurement": "MIC 80%", "setting": "ROB08706, Study LGC282160", "value": 0.25, "unit": "mg/L"},
      {"measurement": "MIC 100%", "setting": "ROB08706, Study LGC282160", "value": 64, "unit": "mg/L"},
      {"measurement": "MIC 80%", "setting": "ROB08706, Study LGC284879", "value": 1, "unit": "mg/L"},
      {"measurement": "MIC 100%", "setting": "ROB08706, Study LGC284879", "value": ">64", "unit": "mg/L"},
      {"measurement": "MIC 80%", "setting": "ROB08706, Study LGC285582", "value": 0.25, "unit": "mg/L"},
      {"measurement": "MIC 100%", "setting": "ROB08706, Study LGC285582", "value": 64, "unit": "mg/L"},
      {"measurement": "MIC 80%", "setting": "ROB08706, Study LGC286210", "value": 0.5, "unit": "mg/L"},
      {"measurement": "MIC 100%", "setting": "ROB08706, Study LGC286210", "value": 64, "unit": "mg/L"},
      {"measurement": "MIC 80%", "setting": "ROB08706, Study LGC293598", "value": 0.5, "unit": "mg/L"},
      {"measurement": "MIC 100%", "setting": "ROB08706, Study LGC293598", "value": ">64", "unit": "mg/L"},
      {"measurement": "MIC 80%", "setting": "ROB08706, Study LGC294355", "value": 0.5, "unit": "mg/L"},
      {"measurement": "MIC 100%", "setting": "ROB08706, Study LGC294355", "value": ">64", "unit": "mg/L"},
      {"measurement": "MIC 80%", "setting": "ROB08706, Study LGC295147", "value": 0.25, "unit": "mg/L"},
      {"measurement": "MIC 100%", "setting": "ROB08706, Study LGC295147", "value": 64, "unit": "mg/L"},
      {"measurement": "MIC 80%", "setting": "ROB08706, Study LGC296813", "value": 0.5, "unit": "mg/L"},
      {"measurement": "MIC 100%", "setting": "ROB08706, Study LGC296813", "value": 64, "unit": "mg/L"},
      {"measurement": "MIC 80%", "setting": "ROB08706, Study LGC299544", "value": 0.5, "unit": "mg/L"},
      {"measurement": "MIC 100%", "setting": "ROB08706, Study LGC299544", "value": 64, "unit": "mg/L"},
      {"measurement": "MIC 80%", "setting": "ROB08706, Study LGC301026", "value": 0.5, "unit": "mg/L"},
      {"measurement": "MIC 100%", "setting": "ROB08706, Study LGC301026", "value": 64, "unit": "mg/L"},
      {"measurement": "MIC 80%", "setting": "ROB08706, Study LGC308175", "value": 0.5, "unit": "mg/L"},
      {"measurement": "MIC 100%", "setting": "ROB08706, Study LGC308175", "value": 64, "unit": "mg/L"},
      {"measurement": "MIC 80%", "setting": "ROB08706, Study ROC010", "value": 0.5, "unit": "mg/L"},
      {"measurement": "MIC 100%", "setting": "ROB08706, Study ROC010", "value": 0.5, "unit": "mg/L"},
      {"measurement": "MIC 80%", "setting": "ROB08706, Study ROC012", "value": 0.5, "unit": "mg/L"},
      {"measurement": "MIC 100%", "setting": "ROB08706, Study ROC012", "value": 32, "unit": "mg/L"},
      {"measurement": "MIC 80%", "setting": "ROB08707, Study LGC281440", "value": "≤0.06", "unit": "mg/L"},
      {"measurement": "MIC 100%", "setting": "ROB08707, Study LGC281440", "value": 16, "unit": "mg/L"},
      {"measurement": "MIC 80%", "setting": "ROB08707, Study LGC282160", "value": 0.12, "unit": "mg/L"},
      {"measurement": "MIC 100%", "setting": "ROB08707, Study LGC282160", "value": 64, "unit": "mg/L"},
      {"measurement": "MIC 80%", "setting": "ROB08707, Study LGC284879", "value": 0.12, "unit": "mg/L"},
      {"measurement": "MIC 100%", "setting": "ROB08707, Study LGC284879", "value": ">64", "unit": "mg/L"},
      {"measurement": "MIC 80%", "setting": "ROB08707, Study LGC285582", "value": 0.12, "unit": "mg/L"},
      {"measurement": "MIC 100%", "setting": "ROB08707, Study LGC285582", "value": 64, "unit": "mg/L"},
      {"measurement": "MIC 80%", "setting": "ROB08707, Study LGC286210", "value": 0.12, "unit": "mg/L"},
      {"measurement": "MIC 100%", "setting": "ROB08707, Study LGC286210", "value": 64, "unit": "mg/L"},
      {"measurement": "MIC 80%", "setting": "ROB08707, Study LGC293598", "value": "≤0.06", "unit": "mg/L"},
      {"measurement": "MIC 100%", "setting": "ROB08707, Study LGC293598", "value": ">64", "unit": "mg/L"},
      {"measurement": "MIC 80%", "setting": "ROB08707, Study LGC294355", "value": 0.12, "unit": "mg/L"},
      {"measurement": "MIC 100%", "setting": "ROB08707, Study LGC294355", "value": ">64", "unit": "mg/L"},
      {"measurement": "MIC 80%", "setting": "ROB08707, Study LGC295147", "value": 0.12, "unit": "mg/L"},
      {"measurement": "MIC 100%", "setting": "ROB08707, Study LGC295147", "value": 64, "unit": "mg/L"},
      {"measurement": "MIC 80%", "setting": "ROB08707, Study LGC296813", "value": 0.12, "unit": "mg/L"},
      {"measurement": "MIC 100%", "setting": "ROB08707, Study LGC296813", "value": 64, "unit": "mg/L"},
      {"measurement": "MIC 80%", "setting": "ROB08707, Study LGC299544", "value": 0.12, "unit": "mg/L"},
      {"measurement": "MIC 100%", "setting": "ROB08707, Study LGC299544", "value": 64, "unit": "mg/L"},
      {"measurement": "MIC 80%", "setting": "ROB08707, Study LGC301026", "value": 0.25, "unit": "mg/L"},
      {"measurement": "MIC 100%", "setting": "ROB08707, Study LGC301026", "value": 64, "unit": "mg/L"},
      {"measurement": "MIC 80%", "setting": "ROB08707, Study LGC308175", "value": "≤0.06", "unit": "mg/L"},
      {"measurement": "MIC 100%", "setting": "ROB08707, Study LGC308175", "value": 64, "unit": "mg/L"},
      {"measurement": "MIC 80%", "setting": "ROB08707, Study ROC010", "value": 0.12, "unit": "mg/L"},
      {"measurement": "MIC 100%", "setting": "ROB08707, Study ROC010", "value": 0.12, "unit": "mg/L"}
    ]}
  ]
}
